Assay results as given in US12410171B2, “Tropomyosin receptor kinase (TRK) degradation compounds and methods of use” (Cullgen (Shanghai), Inc., priority 2020, dated 2025).

Target: T1, TPM3-TRKA fusion protein (Homo sapiens, UniProt P04629)
T1 construct: The resulted chimeric proteins always retain the kinase domain of TRK proteins; TPM3 (fusion partner, N-terminal part of tropomyosin alpha-3, P06753); endogenous in cells; host or cells: KM12 colon cancer cells; the other entry of the earlier key: TPM3 (P06753, Tropomyosin alpha-3 chain)
Assay: TPM3-TRKA fusion protein levels in KM12 cells (Western blot)
Assay type: cell-based
Conditions: 16 h; TPM3-TRKA degradation in KM12 cells at 10 nM compound, category of percentage degradation; read-out: Degradation (at 10 nM)
Summary of the method: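 TPM3-TRKA levels were assessed by Western blot with chemiluminescent detection and band densitometry, after SDS-PAGE of BCA-normalized RIPA lysates. Before lysis, KM12 cells received DMSO, compounds or matched control compounds at concentrations including 0.1, 1, 10 and 100 nM and 0.4–30 nM. Exposures lasted 4 h, 8–16 h or 16 h.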

T1 sequence (P04629 with tags, fused parts or gaps): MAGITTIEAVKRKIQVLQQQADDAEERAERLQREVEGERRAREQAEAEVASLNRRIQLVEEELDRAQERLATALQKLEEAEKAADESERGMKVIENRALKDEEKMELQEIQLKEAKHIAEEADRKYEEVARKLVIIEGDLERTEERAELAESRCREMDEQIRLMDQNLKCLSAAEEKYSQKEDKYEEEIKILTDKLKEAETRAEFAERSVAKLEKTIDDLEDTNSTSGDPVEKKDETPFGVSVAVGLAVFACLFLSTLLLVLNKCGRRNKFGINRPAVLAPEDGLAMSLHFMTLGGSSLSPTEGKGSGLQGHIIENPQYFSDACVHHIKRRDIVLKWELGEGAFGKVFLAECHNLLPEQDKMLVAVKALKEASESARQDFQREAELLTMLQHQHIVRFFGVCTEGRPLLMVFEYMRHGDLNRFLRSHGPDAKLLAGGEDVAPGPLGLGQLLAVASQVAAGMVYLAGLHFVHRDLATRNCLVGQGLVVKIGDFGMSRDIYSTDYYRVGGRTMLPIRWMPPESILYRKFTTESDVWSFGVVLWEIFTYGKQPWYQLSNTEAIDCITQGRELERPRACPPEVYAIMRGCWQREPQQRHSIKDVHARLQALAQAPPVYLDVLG

Structure (SMILES)	percent degradation of TPM3-TRKA protein at 0.01 µM [%]
O=C(CN1CCN(c2cccc(-c3cnc4ccc(N5CCC[C@@H]5c5cccc(F)c5)nn34)n2)CC1)NCCOCCOCCOCCOCCNc1ccc2c(c1)C(=O)N(C1CCC(=O)NC1=O)C2=O (stereo partly drawn) [TR-125, N-(14-((2-(2,6-dioxopiperidin-3-yl)-1,3-dioxoisoindolin-5-yl)amino)-3,6,9,12-tetraoxatetradecyl)-2-(4-(6-(6-((R)-2-(3-fluorophenyl)pyrrolidin-1-yl)imidazo[1,2-b]pyridazin-3-yl)pyridin-2-yl)piperazin-1-yl)acetamide]	> 80
O=C(CN1CCN(c2cccc(-c3cnc4ccc(N5CCC[C@@H]5c5cccc(F)c5)nn34)n2)CC1)NCCOCCOCCOCCOCCOCCNc1ccc2c(c1)C(=O)N(C1CCC(=O)NC1=O)C2=O (stereo partly drawn) [TR-132, N-(17-((2-(2,6-dioxopiperidin-3-yl)-1,3-dioxoisoindolin-5-yl)amino)-3,6,9,12,15-pentaoxaheptadecyl)-2-(4-(6-(6-((R)-2-(3-fluorophenyl)pyrrolidin-1-yl)imidazo[1,2-b]pyridazin-3-yl)pyridin-2-yl)piperazin-1-yl)acetamide]	> 80
O=C1CCC(N2C(=O)c3ccc(NCCOCCOCCOCCOCCOCCC(=O)N4CCN(c5ccc(C(=O)Nc6n[nH]c7ccc(Cc8cc(F)cc(F)c8)cc67)c(NC6CCOCC6)c5)CC4)cc3C2=O)C(=O)N1 (stereo not shown) [TR-137, N-(5-(3,5-Difluorobenzyl)-1H-indazol-3-yl)-4-(4-(1-((2-(2,6-dioxopiperidin-3-yl)-1,3-dioxoisoindolin-5-yl)amino)-3,6,9, 12, 15-pentaoxaoctadecan-18-oyl)piperazin-1-yl)-2-((tetrahydro-2H-pyran-4-yl)amino)benzamide]	> 80
O=C1CCC(N2C(=O)c3ccc(NCCOCCOCCC(=O)N4CCN(c5ccc(C(=O)Nc6n[nH]c7ccc(Cc8cc(F)cc(F)c8)cc67)c(NC6CCOCC6)c5)CC4)cc3C2=O)C(=O)N1 (stereo not shown) [TR-141, N-(5-(3,5-Difluorobenzyl)-1H-indazol-3-yl)-4-(4-(3-(2-(2-((2-(2,6-dioxopiperidin-3-yl)-1,3-dioxoisoindolin-5-yl)amino)ethoxy)ethoxy)propanoyl)piperazin-1-yl)-2-((tetrahydro-2H-pyran-4-yl)amino)benzamide]	> 80
O=C1CCC(N2C(=O)c3ccc(NCCCCC(=O)N4CCN(c5ccc(C(=O)Nc6n[nH]c7ccc(Cc8cc(F)cc(F)c8)cc67)c(NC6CCOCC6)c5)CC4)cc3C2=O)C(=O)N1 (stereo not shown) [TR-142, N-(5-(3,5-Difluorobenzyl)-1H-indazol-3-yl)-4-(4-(5-((2-(2,6-dioxopiperidin-3-yl)-1,3-dioxoisoindolin-5-yl)amino)pentanoyl)piperazin-1-yl)-2-((tetrahydro-2H-pyran-4-yl)amino)benzamide]	> 80
O=C1CCC(N2C(=O)c3ccc(NCCOCCC(=O)N4CCN(c5ccc(C(=O)Nc6n[nH]c7ccc(Cc8cc(F)cc(F)c8)cc67)c(NC6CCOCC6)c5)CC4)cc3C2=O)C(=O)N1 (stereo not shown) [TR-143]	> 80
O=C1CCC(N2C(=O)c3ccc(NCC(=O)N4CCN(c5ccc(C(=O)Nc6n[nH]c7ccc(Cc8cc(F)cc(F)c8)cc67)c(NC6CCOCC6)c5)CC4)cc3C2=O)C(=O)N1 (stereo not shown) [TR-144, N-(5˜ (3,5-Difluorobenzyl)-1H-indazol-3-yl)-4-(4-((2˜ (2,6-dioxopiperidin-3-yl)-1,3-dioxoisoindolin-5-yl)glycyl)piperazin-1-yl)-2-((tetrahydro-2H-pyran-4-yl)amino)benzamide]	> 80
O=C1CCC(N2C(=O)c3ccc(NCCC(=O)N4CCN(c5ccc(C(=O)Nc6n[nH]c7ccc(Cc8cc(F)cc(F)c8)cc67)c(NC6CCOCC6)c5)CC4)cc3C2=O)C(=O)N1 (stereo not drawn) [TR-145, N—(S-(3,5-Difluorobenzyl)-1H-indazol-3-yl)-4-(4-(3-((2-(2,6-dioxopiperidin-3-yl)-1,3-dioxoisoindolin-S-yl)amino)propanoyl)piperazin-1-yl)-2-((tetrahydro-2H-pyran-4-yl)amino)benzamide]	> 80
O=C1CCC(N2C(=O)c3ccc(NCCOCCOCCOCCC(=O)N4CCN(c5ccc(C(=O)Nc6n[nH]c7ccc(Cc8cc(F)cc(F)c8)cc67)c(NC6CCOCC6)c5)CC4)cc3C2=O)C(=O)N1 (stereo not shown) [TR-146, N-(5-(3,5-Difluorobenzyl)-1H-indazol-3-yl)-4-(4-(3-(2-(2-(2-((2-(2,6-dioxopiperidin-3-yl)-1,3-dioxoisoindolin-5-yl)amino)ethoxy)ethoxy)ethoxy)propanoyl)piperazin-1-yl)-2-((tetrahydro-2/-pyran-4-yl)amino)benzamide]	> 80
O=C(CN1CCN(c2ccc(C(=O)Nc3n[nH]c4ccc(Cc5cc(F)cc(F)c5)cc34)c(NC3CCOCC3)c2)CC1)NCCCCCCNc1cccc2c1C(=O)N(C1CCC(=O)NC1=O)C2=O (stereo not drawn) [TR-147, N—(S-(3,5-Difluorobenzyl)-1H-indazol-3-yl)-4-(4-(2-((6-((2-(2,6-dioxopiperidin-3-yl)-1,3-dioxoisoindolin-4-yl)amino)hexyl)amino)-2-oxoethyl)piperazin-1-yl)-2-((tetrahydro-2H-pyran-4-yl)amino)benzamide]	> 80
O=C(CN1CCN(c2ccc(C(=O)Nc3n[nH]c4ccc(Cc5cc(F)cc(F)c5)cc34)c(NC3CCOCC3)c2)CC1)NCCCCCNc1cccc2c1C(=O)N(C1CCC(=O)NC1=O)C2=O (stereo not shown) [TR-149, N-(5-(3,5-Difluorobenzyl)-1H-indazol-3-yl)-4-(4-(2-((5-((2-(2,6-dioxopiperidin-3-yl)-1,3-dioxoisoindolin-4-yl)amino)pentyl)amino)-2-oxoethyl)piperazin-1-yl)-2-((tetrahydro-2H-pyran-4-yl)amino)benzamide]	> 80

Continued, values first:

percent degradation of TPM3-TRKA protein at 0.01 µM [%]	Structure (SMILES)
> 80	O=C1CCC(N2C(=O)c3ccc(NCCC(=O)N4CCN(c5cccc(-c6cnc7ccc(N8CCC[C@@H]8c8cccc(F)c8)nn67)n5)CC4)cc3C2=O)C(=O)N1 (stereo partly drawn) [TR-121, 2-(2,6-Dioxopiperidin-3-yl)-5-((3-(4-(6-(6-((R)-2-(3-fluorophenyl)pyrrolidin-1-yl)imidazo[1,2-b]pyridazin-3-yl)pyridin-2-yl)piperazin-1-yl)-3-oxopropyl)amino) isoindoline-1,3-dione]
> 80	O=C1CCC(N2C(=O)c3ccc(NCCCCCC(=O)N4CCN(c5cccc(-c6cnc7ccc(N8CCC[C@@H]8c8cccc(F)c8)nn67)n5)CC4)cc3C2=O)C(=O)N1 (stereo partly drawn) [TR-122, 2-(2,6-Dioxopiperidin-3-yl)-5-((6-(4-(6-(6-((R)-2-(3-fluorophenyl)pyrrolidin-1-yl)imidazo[1,2-b]pyridazin-3-yl)pyridin-2-yl)piperazin-1-yl)-6-oxohexyl)amino) isoindoline-1,3-dione]
> 80	O=C(CN1CCN(c2cccc(-c3cnc4ccc(N5CCC[C@@H]5c5cccc(F)c5)nn34)n2)CC1)NCCCCNc1ccc2c(c1)C(=O)N(C1CCC(=O)NC1=O)C2=O (stereo partly drawn) [TR-124, N-(4-((2-(2,6-dioxopiperidin-3-yl)-1,3-dioxoisoindolin-S-yl)amino)butyl)-2-(4-(6-(6-((R)-2-(3-fluorophenyl)pyrrolidin-1-yl)imidazo[1,2-b]pyridazin-3-yl)pyridin-2-yl)piperazin-1-yl)acetamide]
> 80	O=C(CN1CCN(c2cccc(-c3cnc4ccc(N5CCC[C@@H]5c5cccc(F)c5)nn34)n2)CC1)NCCCNc1ccc2c(c1)C(=O)N(C1CCC(=O)NC1=O)C2=O (stereo partly drawn) [TR-127, N-(3-((2-(2,6-dioxopiperidin-3-yl)-1,3-dioxoisoindolin-S-yl)amino)propyl)-2-(4-(6-(6-((R)-2-(3-fluorophenyl)pyrrolidin-1-yl)imidazo[1,2-b]pyridazin-3-yl)pyridin-2-yl)piperazin-1-yl)acetamide]
> 80	O=C(CN1CCN(c2cccc(-c3cnc4ccc(N5CCC[C@@H]5c5cccc(F)c5)nn34)n2)CC1)NCCCCCCNc1ccc2c(c1)C(=O)N(C1CCC(=O)NC1=O)C2=O (stereo partly drawn) [TR-128, N-(6-((2-(2,6-dioxopiperidin-3-yl)-1,3-dioxoisoindolin-5-yl)amino)hexyl)-2-(4-(6-(6-((R)-2-(3-fluorophenyl)pyrrolidin-1-yl)imidazo[1,2-b]pyridazin-3-yl)pyridin-2-yl)piperazin-1-yl)acetamide]
> 80	O=C(CN1CCN(c2cccc(-c3cnc4ccc(N5CCC[C@@H]5c5cccc(F)c5)nn34)n2)CC1)NCCOCCOCCOCCNc1ccc2c(c1)C(=O)N(C1CCC(=O)NC1=O)C2=O (stereo partly drawn) [TR-129, N-(2-(2-(2-(2-((2-(2,6-dioxopiperidin-3-yl)-1,3-dioxoisoindolin-5-yl)amino)ethoxy)ethoxy)ethoxy)ethyl)-2-(4-(6-(6-((R)-2-(3-fluorophenyl)pyrrolidin-1-yl)imidazo[1,2-b]pyridazin-3-yl)pyridin-2-yl)piperazin-1-yl)acetamide]
> 80	O=C(CN1CCN(c2cccc(-c3cnc4ccc(N5CCC[C@@H]5c5cccc(F)c5)nn34)n2)CC1)NCCCCCNc1ccc2c(c1)C(=O)N(C1CCC(=O)NC1=O)C2=O (stereo partly drawn) [TR-131, N-(5-((2-(2,6-dioxopiperidin-3-yl)-1,3-dioxoisoindolin-5-yl)amino)pentyl)-2-(4-(6-(6-((R)-2-(3-fluorophenyl)pyrrolidin-1-yl)imidazo[1,2-b]pyridazin-3-yl)pyridin-2-yl)piperazin-1-yl)acetamide]
> 80	O=C(CN1CCN(c2cccc(-c3cnc4ccc(N5CCC[C@@H]5c5cccc(F)c5)nn34)n2)CC1)NCCOCCOCCNc1ccc2c(c1)C(=O)N(C1CCC(=O)NC1=O)C2=O (stereo partly drawn) [TR-134, N-(2-(2-(2-((2-(2,6-dioxopiperidin-3-yl)-1,3-dioxoisoindolin-5-yl)amino)ethoxy)ethoxy)ethyl)-2-(4-(6-(6-((R)-2-(3-fluorophenyl)pyrrolidin-1-yl)imidazo[1,2-b]pyridazin-3-yl)pyridin-2-yl)piperazin-1-yl)acetamide]
